Assay results published in publication PMC10451623 (Antioxidants, 2023).
No end group written: not given here. *: point of attachment. Biotin = O=C1N[C@H]2[C@H](CS[C@H]2CCCCC(=O)*)N1

Key:
[1] = target: T1, PPARα-LBD (Homo sapiens, UniProt Q07869); assay: Thermal stability assay using circular dichroism spectroscopy; assay type: binding; design: Human PPARα-LBD (amino acids 200–468); His tag (pET28a) (N); made in house; host or cells: Rosetta (DE3) pLysS (E. coli); settings: CD at 222 nm; 10 µM LBD; GW7647 at 10 µM
T1 sequence (Q07869 200-468): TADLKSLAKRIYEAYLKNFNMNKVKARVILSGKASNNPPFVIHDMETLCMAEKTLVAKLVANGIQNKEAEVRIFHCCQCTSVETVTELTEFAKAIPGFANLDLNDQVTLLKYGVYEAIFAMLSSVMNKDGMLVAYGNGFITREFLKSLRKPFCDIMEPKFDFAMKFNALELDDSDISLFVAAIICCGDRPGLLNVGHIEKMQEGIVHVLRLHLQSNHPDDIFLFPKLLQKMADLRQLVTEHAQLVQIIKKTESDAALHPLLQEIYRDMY
Experimental: (§1) PPARα/δ/γ-LBD proteins (10 µM) were incubated with different concentrations of ligands in buffer C consisting of 20 mM Tris-HCl (pH 8.0), 150 mM NaCl, 1 mM Tris 2-carboxyethylphosphine (TCEP)-HCl, and 10% glycerol. The circular dichroism (CD) spectra were monitored within a 200–260 nm range at increasing temperatures from 30 °C to 70 °C (2 °C/min) using a J-1500 spectropolarimeter equipped with a PTC-510 thermal controller (JASCO, Tokyo, Japan). […] The ligand-induced increases in the Tm values were defined as ∆Tm.
(§2) Nuclear receptors, including PPARs, display an increased thermal stability upon ligand binding, which is detectable through CD spectroscopy.
(§3) Figure 3 Circular dichroism-based PPARα/δ/γ-LBD thermal stability assay. […] Data are presented as the mean ± SE of three or four (in parentheses) independent experiments. Differences vs. basal levels (with 0.1% DMSO) were statistically assessed by one-way ANOVA, followed by a Dunnett’s post hoc test: * p < 0.05, ** p < 0.01, and *** p < 0.001.

[2] = target: T1, PPARα-LBD; design: Human PPARα-LBD (amino acids 200–468); made in house; host or cells: Rosetta (DE3) pLysS (E. coli); method as in PMID 33205029; settings: read-out: EC50 in the PGC1α recruitment activity (PPARα); cited from earlier work
[3] = target: T2, human PPARα (Homo sapiens, UniProt Q07869); assay: Transactivation assay (GAL4–hPPARα-LBD chimera, luciferase reporter, COS-7 cells); assay type: cell-based; settings: 100% = 1 µM GW7647, read-out: Efficacy, PPARα transactivation (% of the maximal response)
T2 construct: expressed in transfected cells; host or cells: COS-7
T2 sequence (Q07869 239-466 limits assumed): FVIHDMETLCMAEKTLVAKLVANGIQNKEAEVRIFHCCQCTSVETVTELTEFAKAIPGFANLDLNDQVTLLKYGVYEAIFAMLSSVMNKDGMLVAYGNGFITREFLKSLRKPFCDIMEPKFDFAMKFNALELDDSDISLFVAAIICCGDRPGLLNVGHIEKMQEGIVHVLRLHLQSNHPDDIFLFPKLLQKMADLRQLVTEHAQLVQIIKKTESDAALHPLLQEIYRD
Experimental: (§4) The pSG5-GAL–hPPARα/δ/γ plasmids express fusion proteins comprising the yeast transcription factor GAL4 DNA-binding domain and each of the human PPARα/δ/γ-LBDs. The MH100(UAS)×4-tk-Luc plasmid contains four copies of the MH100 GAL4 binding site and the Firefly luciferase gene. The cells were transfected with those plasmids and were treated with various PPAR ligands, and both Firefly and Renilla luciferase activities were measured using the Dual-Glo Luciferase Assay System (Promega, Madison, WI, USA) as described previously. […] GW1929 was purchased from Sigma-Aldrich (St. Louis, MO, USA).
(§5) For the undertaking of the comparison of the potency, efficacy, and selectivity of the five PPAR ligands (Figure 1A) against the PPAR subtypes, we evaluated their PPARα/δ/γ activation using three different methods: a cell-based transactivation assay, a coactivator recruitment assay, and a thermal stability assay, as we previously performed on three fibrates (namely, bezafibrate, fenofibric acid, and pemafibrate). The cell-based transactivation assay utilizing the Gal4–PPAR-LBD system is the most widely used method for the determination of PPAR activation by certain ligands, although their responses depend on the used cell types in which several coactivators with altered functions are differentially expressed.
(§6) Figure 1 LBD-mediated human PPARα/δ/γ transactivation by PPAR ligands. (A) Chemical structures of the five PPAR ligands used in this study. […] Data are presented as the mean ± standard error (SE) of three independent experiments with duplicate samples.

[4] = target: T3, human PPARδ (Homo sapiens, UniProt Q03181); assay: Transactivation assay (GAL4–hPPARδ-LBD chimera, luciferase reporter, COS-7 cells); assay type: cell-based; settings: COS-7, read-out: Efficacy, PPARδ transactivation (% of the maximal response)
T3 construct: expressed in transfected cells; host or cells: COS-7
T3 sequence (Q03181 211-439 limits assumed): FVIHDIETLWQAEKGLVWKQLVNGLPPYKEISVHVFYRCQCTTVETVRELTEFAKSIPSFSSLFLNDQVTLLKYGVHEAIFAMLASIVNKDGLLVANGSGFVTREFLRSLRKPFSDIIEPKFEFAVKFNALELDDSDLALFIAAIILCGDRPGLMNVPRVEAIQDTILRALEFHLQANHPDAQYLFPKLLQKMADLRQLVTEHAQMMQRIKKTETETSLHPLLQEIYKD
Experimental: as §4, §5, §6

[5] = target: T4, PPARδ-LBD (Homo sapiens, UniProt Q03181); assay: Thermal stability assay using circular dichroism spectroscopy; assay type: binding; design: PPARδ-LBD (amino acids 170–441); His tag (pET28a) (N); made in house; host or cells: Rosetta (DE3) pLysS (E. coli); settings: CD at 222 nm; 10 µM LBD; GW501516 at 50 µM
T4 sequence (Q03181 170-441): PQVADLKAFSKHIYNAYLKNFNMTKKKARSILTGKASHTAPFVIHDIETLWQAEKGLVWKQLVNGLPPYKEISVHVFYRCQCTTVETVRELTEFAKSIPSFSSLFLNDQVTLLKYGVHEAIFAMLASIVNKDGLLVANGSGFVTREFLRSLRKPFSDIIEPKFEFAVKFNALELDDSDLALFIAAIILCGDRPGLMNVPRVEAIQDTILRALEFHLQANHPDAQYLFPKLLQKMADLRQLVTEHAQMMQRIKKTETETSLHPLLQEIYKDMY
Experimental: as §1, §2, §3

[6] = target: T5, PPARγ-LBD (Homo sapiens, UniProt P37231); assay: as above; assay type: binding; design: PPARγ-LBD (amino acids 203–477 in isoform 1); His tag (pET28a) (N); made in house; host or cells: Rosetta (DE3) pLysS (E. coli); settings: CD at 222 nm; 10 µM LBD; GW1929 at 10 µM
T5 sequence (P37231 203-477 isoform P37231-2): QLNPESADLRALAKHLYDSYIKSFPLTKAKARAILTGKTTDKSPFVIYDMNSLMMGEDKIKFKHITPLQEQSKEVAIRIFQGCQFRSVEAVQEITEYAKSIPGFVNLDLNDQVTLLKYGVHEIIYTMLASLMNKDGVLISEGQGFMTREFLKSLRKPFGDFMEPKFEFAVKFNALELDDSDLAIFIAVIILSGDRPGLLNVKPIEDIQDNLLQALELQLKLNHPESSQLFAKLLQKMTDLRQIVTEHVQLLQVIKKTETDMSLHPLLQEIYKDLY
Experimental: as §1, §2, §3

[7] = target: T6, Human PPARα-LBD (amino acids 200–468), amino-terminal His-tagged (human, UniProt Q07869 200-468); assay: FRET or BRET; LANCE Ultra TR-FRET; His-tagged LBD (400 nM solution, 9.5 µL) + biotin-PGC1α (4 µM, 5 µL) or biotin-SRC1 peptide (8 µM, 5 µL), Eu-W1024 anti-6×His antibody / ULight-Streptavidin, 2 h, room temperature; buffer A (10 mM HEPES-NaOH pH 7.4, 150 mM NaCl, 0.005% Tween 20, 0.1% BSA) for PPARα/γ-LBD, buffer B (50 mM HEPES-NaOH pH 7.4, 50 mM KCl, 1 mM EDTA, 0.5 mM DTT, 0.1% BSA) for PPARδ-LBD; ligand: reference …; settings: both partners purified
T6 construct: The His tag is detected by the anti-6xHis antibody in the TR-FRET assay; A delipidized preparation was used for some PPARα crystals; also called hPPARα-LBD; not shown: His tag, N-terminal, kept
T6 sequence (looked up): T1 sequence (Q07869 200-468)

## CC(C)(Sc1ccc(CCN(CCCCC2CCCCC2)C(=O)NC2CCCCC2)cc1)C(=O)O [GW7647]
[1]
  Effect on Tm of PPARα-LBD (in words): highly increased Tm values

## CC(C)(Oc1ccc(Cl)cc1)C(=O)O [clofibric acid]
[2]
  EC50: 574 µM

## CCc1ccc(CCOc2ccc(CC3SC(=O)NC3=O)cc2)nc1 (centres unmarked) [pioglitazone]
[3]
  Emax: 25.2%
[4]
  Emax: 0.518%
[1]
  Effect on Tm of PPARα-LBD (in words): no effects
[5]
  Effect on Tm of PPARδ-LBD (in words): no effects

## GW1929
[6]
  Effect on Tm of PPARγ-LBD (in words): highly increased Tm values

B1: biotin-labeled PPARγ coactivator 1α (PGC1α) coactivator peptide (amino acids 137–155) (peptide)
peptide: Biotin-EAEEPSLLKKLLLAPANTQ
notes: also called biotin-PGC1α; source: synthetic peptide (GenScript)
[7]
  binding result: binds
